Experimental data: patent US20050170004A1, “Nanoparticles for drug delivery” (priority 2003, published 2005)

Tests used:
pancreatin = assay: Protection from enzymatic degradation by pancreatin; type: in vitro ADME; details: pancreatin:GA 1:10, 37° C., phosphate buffer pH 6.8
Procedure: The enzymatic degradation of free GA in solution versus GA in the nano suspension (˜50% bound to the nanoparticles) and versus GA bound to the nanoparticles (˜100% bound) was studied using pancreatin. The GA bound to the nanoparticles was prepared by collecting fractions from the void volume of the Sephadex column as described in Example 1 and pooling the samples. Pancreatin is a mixture of pancreatic proteases consisting of trypsin and chymotrypsins.
Pancreatin 3.5 mg was dissolved in 10 ml of 0.05M phosphate buffer pH=6.8. Free GA, GA in nano suspension, or fully bound GA, 35 mg as GA, was dissolved or suspended in 10 ml of 0.05M phosphate buffer pH=6.8. 1 ml of the pancreatin solution and 1 ml of the GA solution or suspension were mixed (the ratio of pancreatin to GA was fixed at 1:10) and held at 37° C. At fixed time points the enzymatic reaction was stopped by adding 0.4 ml of 1N HCl. The residual GA content of the mixture was determined by the HPLC method described in Example 1.

[1] = tested on: EAE in the Lewis rat model; assay: Efficacy in rat experimental autoimmune encephalomyelitis (EAE); type: in vivo; details: for % of inhibition vs. DDW: inhibition of group mean score
From the text: In this experiment the goal was to reduce experimental autoimmune encephalomyelitis (EAE) induced clinical signs in the Lewis rat model. Lewis (LEW) rats are highly susceptible to EAE induced with guinea pig spinal cord homogenate (GPSCH) emulsified in modified complete Freund's adjuvant (CFA). […] Decreased signs of EAE in rats with test materials administered orally during the study is considered a protective effect set forth by the experimental design.
The animal were induced with the disease by subcutaneous injection of GPSCH emulsion into both hind paws on day 1.
Initiation of scoring of rats for EAE clinical signs started on day 9. The treatment groups were blinded to the scorer. The treatments or control treatments were started on day 1 and administered daily to day 22. Treatments were administered by oral gavage at a dose and frequency described in Table 2.
There were ten rats in each group.
The animals were accessed daily for EAE clinical signs as described in Table 3.
The number of sick animals in each group were assessed. The day of onset of the symptoms, the duration of days of the symptoms and the number of animals dying were noted and the percentages calculated.
The maximal scores of each of the animals in each group were summed. The mean maximal score of the group was calculated as follows: […]
Σ Maximal score of each rat/number of rats in the group.
The scores of each of the animals in the group were summed and the mean score per day was calculated. The group mean score was calculated as follows: • Σ Total score of each rat per day/number of rats in the group. Results

spleen cells of mice = assay: Immunologic activity ex-vivo in mice: cytokine secretion from splenocytes activated with GA RS (ELISA); details: mice fed daily 250 μg GA equivalent; throughout the test period
Procedure: The ability of GA-Wax-PVP to elicit an immune response with a similar cytokine pattern as glatiramer acetate solution was tested in an ex-vivo model in mice. The study was conducted over a period of 10 days. Mice were fed daily with GA reference standard (GA RS, 250 μg), GA-Wax-PVP (amount equivalent to 250 μg GA) or Wax-PVP as negative control (similar volume and weight of particles as GA-Wax-PVP). During the study period, subsets of animals in each treatment group were sacrificed on days 3, 6 and 10. Spleens were excised and primary cell cultures were prepared. The effect of the treatment was tested by in-vitro activation of splenocytes with GA RS. The response of the cells to the challenge is a measure of previous exposure to GA. Comparing the immune response of the mice fed GA-Wax-PVP to those fed GA RS gives a measure of the relative exposure to GA that each treatment provided. T-cell response was monitored by detection of cytokines secreted from activated cells by ELISA analysis. The levels of IL-2, TGF-β, IL-4, IL-5, IL-10 and IFN-γ were examined.

multiple sclerosis = details: cited from earlier work
[2] = daily oral gavage day 1-22, 2.5 mg GA/ml, 5 ml/kg

Substance: Glatiramer acetate [GA]
- percent residual GA (pancreatin; 0 min): 100.0 +/− 0.0%
- percent residual GA (pancreatin; 1 min): 75.1 +/− 3.9%
- percent residual GA (pancreatin; 2 min): 63.4 +/− 4.8%
- percent residual GA (pancreatin; 3 min, listed as Free GA, 3 min): 56.3 +/− 4.7%
- percent residual GA (pancreatin; 3 min, listed as free GA): 56%
- percent residual GA (pancreatin; 6 min): 47.1 +/− 4.4%
- Group Mean Score ([1]; EAE clinical score 0-6): 0.67 ± 0.4
- Mean Maximal Score ([1]; EAE clinical score 0-6): 2.2 ± 1.1
- Incidence % [1, 2]: 89%
- Incidence Total N [1, 2]: 8/9
- Mean Disease Duration [1, 2]: 3.2 ± 1.6 days
- Mean Onset [1, 2]: 13.0 ± 2.5 days
- Mortality % [1, 2]: 0%
- Mortality Total N [1, 2]: 0/10
- Incidence Total N ([1]; daily oral gavage day 1-22, 2.5 mg GA/ml, 5 ml/kg, listed as Glatiramer acetate oral solution): eight of nine
- Daily Mean Score ([1]; day 9, EAE clinical score 0-6): 0.0
- Daily Mean Score ([1]; day 10, EAE clinical score 0-6): 0.0
- Daily Mean Score ([1]; day 11, EAE clinical score 0-6): 0.2
- Daily Mean Score ([1]; day 12, EAE clinical score 0-6): 1.3
- Daily Mean Score ([1]; day 13, EAE clinical score 0-6): 2.0
- Daily Mean Score ([1]; day 14, EAE clinical score 0-6): 1.8
- Daily Mean Score ([1]; day 15, EAE clinical score 0-6): 1.2
- Daily Mean Score ([1]; day 16, EAE clinical score 0-6): 0.1
- Daily Mean Score ([1]; day 17, EAE clinical score 0-6): 0.0
- Daily Mean Score ([1]; day 18, EAE clinical score 0-6): 0.0
- AUC of daily mean score ([1]; days 9-18): 6.6
- % of inhibition vs. DDW [1]: 38%
- % of inhibition vs. DDW ([1]; listed as glatiramer acetate oral solution): 38%
- effect on disease severity of EAE (conclusion) ([1]; oral administration, in words): inhibit the disease severity of EAE in rats
- levels of all the cytokines examined (IL-2, TGF-β, IL-4, IL-5, IL-10, IFN-γ) (spleen cells of mice): similar
- clinical benefits for MS patients (multiple sclerosis; 20 mg subcutaneous daily injection): extended clinical benefits
- burden of disease lesions in magnetic resonance imaging measures (multiple sclerosis; literature review): significantly reduce
- relapse rate of multiple sclerosis (multiple sclerosis; literature review): significantly reduce
